Assay results as given in patent US20260159536A1, “AKR1C3-ACTIVATED DNA ALKYLATING AGENT, AND MEDICAL APPLICATION THEREOF” (ASCENTAWITS PHARMACEUTICALS, LTD., priority 2021, published 2026).

Columns and labels:
[1] = Plasma stability test, monkey; type: in vitro ADME; details: 37° C.
Method: The pH of the plasma was checked and recorded. Note: a.
The final concentration of solvent was 0.5%.
The assay was performed in duplicate. […] The tubes were mixed by vortex for 5 minutes.

[2] = MTD assay and toxicokinetics of Compound A, single 30 min intravenous infusion
[3] = test system: human lung cancer NCI-H460 cells; test: In vivo pharmacodynamics, NCI-H460 subcutaneous xenograft model; design: species or system BALB/c nude mice; details: for Relative tumor volume (x ± S) / T/C (%) / TGI (%) / Tumor volume (x ± S): QWx3, i.v.; for Tumor volume (x ± S): in mm³ (unit assumed)
[4] = test system: human liver cancer LI6652; test: In vivo pharmacodynamics, liver cancer LI6652 subcutaneous xenograft PDX model; design: species or system BALB/c nude mice; details: for Relative tumor volume (x ± S) / T/C (%) / TGI (%) / Tumor volume (x ± S): 2 weeks off, 2 cycles
Method: The pharmacodynamic analysis of each group in liver cancer LI6652 model was performed on Day 31 after administration, and the results were shown in Table 12.

[5] = test system: human liver cancer LI6652; test: as above; design: species or system BALB/c nude mice; details: 5 mg/kg i.p. QDx5, 2 days off, 2 weeks off, 2 cycles; Day 28
[6] = test system: HuPrime model LU2505 human lung cancer; test: In vivo pharmacodynamics, lung cancer LU2505 PDX model; design: species or system BALB/c nude mice; details: for Tumor volume (x ± S): in mm³ (unit assumed)
[7] = 1.25 mg/kg i.p. QDx5, 2 days off, Day 28
[8] = 2.5 mg/kg i.p. QDx5, 2 days off, Day 28
[9] = 5 mg/kg i.p. QDx5, 2 days off, Day 28

O=[N+]([O-])c1ccc(C(OP(=O)(N2CC2)N2CC2)C(F)(F)F)cc1Oc1ccc(-c2ccc(F)cc2)c(F)c1 (racemic) [Compound A]
Percentage remaining after 2 hours in plasma ([1]; Monkey plasma, 5 μM): 79.20%
remained in plasma after 2 hours ([1]; monkey plasma): 79.20%
exposure ([2]; 1, 3, 6 mg/kg): dose proportional
survival ([2]; 1, 3, 6 mg/kg, until planned dissection): all animals survived
MTD at 14 days ([2]; both, monkey (machins), in vivo, iv): > 6 mg/kg
clearance ([2]; both, monkey (machins), plasma, iv): 22.3 to 45.3 mL/min/kg
clinical observation ([2]; females, 3 mg/kg and 6 mg/kg): slight erythema at the site of the administration
clinical observation ([2]; males and females, 6 mg/kg): Soft stools
Tumor volume ([3]; 5 mg/kg i.v., Day 7): 144.35 mm^3
Tumor volume ([3]; 5 mg/kg i.v., Day 10): 183.15 mm^3
Tumor volume ([3]; 5 mg/kg i.v., Day 14): 198.80 mm^3
Tumor volume ([3]; 5 mg/kg i.v., Day 17): 228.87 mm^3
Tumor volume ([3]; 5 mg/kg i.v., Day 21): 253.30 mm^3
Tumor volume ([3]; 5 mg/kg i.v., Day 24): 310.83 mm^3
Tumor volume ([3]; 5 mg/kg i.v., Day 28): 279.31 mm^3
Tumor volume ([3]; 5 mg/kg i.v., Day 31): 337.78 mm^3
Tumor volume ([3]; 5 mg/kg i.v., Day 35): 452.75 mm^3
Relative tumor volume (x ± S) ([3]; 5 mg/kg, Day 31): 2.45 ± 0.29
T/C (%) ([3]; 5 mg/kg, Day 31): 18.51%
TGI (%) ([3]; 5 mg/kg, Day 31): 81.49%
Tumor volume (x ± S) ([3]; 5 mg/kg, Day 31): 337.78 ± 54.37
Tumor volume ([3]; 10 mg/kg i.v., Day 7): 144.21 mm^3
Tumor volume ([3]; 10 mg/kg i.v., Day 10): 164.75 mm^3
Tumor volume ([3]; 10 mg/kg i.v., Day 14): 151.95 mm^3
Tumor volume ([3]; 10 mg/kg i.v., Day 17): 140.29 mm^3
Tumor volume ([3]; 10 mg/kg i.v., Day 21): 138.66 mm^3
Tumor volume ([3]; 10 mg/kg i.v., Day 24): 144.36 mm^3
Tumor volume ([3]; 10 mg/kg i.v., Day 28): 149.16 mm^3
Tumor volume ([3]; 10 mg/kg i.v., Day 31): 164.13 mm^3
Tumor volume ([3]; 10 mg/kg i.v., Day 35): 168.68 mm^3
Relative tumor volume (x ± S) ([3]; 10 mg/kg, Day 31): 1.18 ± 0.27
TGI (%) ([3]; 10 mg/kg, Day 31): 91.06%
Tumor volume ([3]; 15 mg/kg i.v., Day 7): 145.41 mm^3
Tumor volume ([3]; 15 mg/kg i.v., Day 10): 171.22 mm^3
Tumor volume ([3]; 15 mg/kg i.v., Day 14): 167.54 mm^3
Tumor volume ([3]; 15 mg/kg i.v., Day 17): 161.80 mm^3
Tumor volume ([3]; 15 mg/kg i.v., Day 21): 157.66 mm^3
Tumor volume ([3]; 15 mg/kg i.v., Day 24): 151.20 mm^3
Tumor volume ([3]; 15 mg/kg i.v., Day 28): 134.73 mm^3
Tumor volume ([3]; 15 mg/kg i.v., Day 35): 108.70 mm^3
T/C (%) ([3]; 15 mg/kg, Day 31): 6.94%
Tumor volume (x ± S) ([3]; 15 mg/kg, Day 31): 125.90 ± 25.46
effect on body weights ([3]; 5, 10, 15 mg/kg, at least 31 days): no significant effect on the body weights
Relative tumor volume (x ± S) [4, 7]: 0.18 ± 0.07
T/C (%) [4, 7]: 1.23%
TGI (%) [4, 7]: 98.77%
Tumor volume (x ± S) [4, 7]: 24.72 ± 9.57
Tumor volume ([4]; 1.25 mg/kg i.p., Day 0): 126.30 mm^3
Tumor volume ([4]; 1.25 mg/kg i.p., Day 3): 184.11 mm^3
Tumor volume ([4]; 1.25 mg/kg i.p., Day 7): 194.19 mm^3
Tumor volume ([4]; 1.25 mg/kg i.p., Day 10): 135.63 mm^3
Tumor volume ([4]; 1.25 mg/kg i.p., Day 14): 51.98 mm^3
Tumor volume ([4]; 1.25 mg/kg i.p., Day 17): 28.94 mm^3
Tumor volume ([4]; 1.25 mg/kg i.p., Day 21): 29.42 mm^3
Tumor volume ([4]; 1.25 mg/kg i.p., Day 24): 28.38 mm^3
Tumor volume ([4]; 1.25 mg/kg i.p., Day 28): 24.72 mm^3
Tumor volume ([4]; 1.25 mg/kg i.p., Day 31): 18.12 mm^3
Relative tumor volume (x ± S) [4, 8]: 0.17 ± 0.10
T/C (%) [4, 8]: 1.16%
TGI (%) [4, 8]: 98.84%
Tumor volume (x ± S) [4, 8]: 18.28 ± 8.14
Tumor volume ([4]; 2.5 mg/kg i.p., Day 0): 126.29 mm^3
Tumor volume ([4]; 2.5 mg/kg i.p., Day 3): 179.46 mm^3
Tumor volume ([4]; 2.5 mg/kg i.p., Day 7): 189.33 mm^3
Tumor volume ([4]; 2.5 mg/kg i.p., Day 10): 145.19 mm^3
Tumor volume ([4]; 2.5 mg/kg i.p., Day 14): 43.64 mm^3
Tumor volume ([4]; 2.5 mg/kg i.p., Day 17): 29.90 mm^3
Tumor volume ([4]; 2.5 mg/kg i.p., Day 21): 21.49 mm^3
Tumor volume ([4]; 2.5 mg/kg i.p., Day 24): 17.91 mm^3
Tumor volume ([4]; 2.5 mg/kg i.p., Day 28): 18.28 mm^3
Tumor volume ([4]; 2.5 mg/kg i.p., Day 31): 5.56 mm^3
Relative tumor volume (x ± S) [4, 9]: 0.02 ± 0.02
T/C (%) [4, 9]: 0.14%
Tumor volume (x ± S) [4, 9]: 3.38 ± 3.38
Tumor volume ([4]; 5 mg/kg i.p., Day 0): 124.83 mm^3
Tumor volume ([4]; 5 mg/kg i.p., Day 3): 174.91 mm^3
Tumor volume ([4]; 5 mg/kg i.p., Day 7): 190.90 mm^3
Tumor volume ([4]; 5 mg/kg i.p., Day 10): 130.55 mm^3
Tumor volume ([4]; 5 mg/kg i.p., Day 14): 34.29 mm^3
Tumor volume ([4]; 5 mg/kg i.p., Day 17): 19.84 mm^3
Tumor volume ([4]; 5 mg/kg i.p., Day 21): 13.80 mm^3
Tumor volume ([4]; 5 mg/kg i.p., Day 24): 12.20 mm^3
Tumor volume ([4]; 5 mg/kg i.p., Day 28): 3.38 mm^3
Tumor volume ([4]; 5 mg/kg i.p., Day 31): 2.62 mm^3
relative tumor inhibition TGI (%) ([4]; 1.25, 2.5, 5 mg/kg i.p.): exceeding 98%
effect on body weight ([4]; 1.25, 2.5, 5 mg/kg, at least 28 days): no significant effect on the body weight
TGI (%) [5]: 99.86%
Relative tumor volume (x ± S) ([6]; 1.25 mg/kg i.v. QWx3, Day 28): 4.61 ± 1.57
T/C (%) ([6]; 1.25 mg/kg i.v. QWx3, Day 28): 43.14%
TGI (%) ([6]; 1.25 mg/kg i.v. QWx3, Day 28): 56.86%
Tumor volume (x ± S) ([6]; 1.25 mg/kg i.v. QWx3, Day 28): 485.95 ± 175.25
Tumor volume ([6]; 1.25 mg/kg i.v., Day 0): 103.28 mm^3
Tumor volume ([6]; 1.25 mg/kg i.v., Day 4): 156.32 mm^3
Tumor volume ([6]; 1.25 mg/kg i.v., Day 7): 231.55 mm^3
Tumor volume ([6]; 1.25 mg/kg i.v., Day 11): 242.12 mm^3
Tumor volume ([6]; 1.25 mg/kg i.v., Day 14): 291.72 mm^3
Tumor volume ([6]; 1.25 mg/kg i.v., Day 18): 383.24 mm^3
Tumor volume ([6]; 1.25 mg/kg i.v., Day 21): 434.92 mm^3
Tumor volume ([6]; 1.25 mg/kg i.v., Day 25): 478.15 mm^3
Tumor volume ([6]; 1.25 mg/kg i.v., Day 28): 485.95 mm^3
Relative tumor volume (x ± S) ([6]; 2.5 mg/kg i.v. QWx3, Day 28): 1.11 ± 0.56
T/C (%) ([6]; 2.5 mg/kg i.v. QWx3, Day 28): 10.43%
TGI (%) ([6]; 2.5 mg/kg i.v. QWx3, Day 28): 89.57%
Tumor volume (x ± S) ([6]; 2.5 mg/kg i.v. QWx3, Day 28): 102.06 ± 47.51
Tumor volume ([6]; 2.5 mg/kg i.v., Day 0): 103.26 mm^3
Tumor volume ([6]; 2.5 mg/kg i.v., Day 4): 149.02 mm^3
Tumor volume ([6]; 2.5 mg/kg i.v., Day 7): 131.34 mm^3
Tumor volume ([6]; 2.5 mg/kg i.v., Day 11): 109.62 mm^3
Tumor volume ([6]; 2.5 mg/kg i.v., Day 14): 116.57 mm^3
Tumor volume ([6]; 2.5 mg/kg i.v., Day 18): 113.09 mm^3
Tumor volume ([6]; 2.5 mg/kg i.v., Day 21): 103.18 mm^3
Tumor volume ([6]; 2.5 mg/kg i.v., Day 25): 92.38 mm^3
Tumor volume ([6]; 2.5 mg/kg i.v., Day 28): 102.06 mm^3
Relative tumor volume (x ± S) ([6]; 5 mg/kg i.v. QWx3, Day 28): 0.17 ± 0.07
T/C (%) ([6]; 5 mg/kg i.v. QWx3, Day 28): 1.60%
TGI (%) ([6]; 5 mg/kg i.v. QWx3, Day 28): 98.40%
Tumor volume (x ± S) ([6]; 5 mg/kg i.v. QWx3, Day 28): 19.00 ± 8.08
Tumor volume ([6]; 5 mg/kg i.v., Day 0): 103.23 mm^3
Tumor volume ([6]; 5 mg/kg i.v., Day 4): 139.41 mm^3
Tumor volume ([6]; 5 mg/kg i.v., Day 7): 111.31 mm^3
Tumor volume ([6]; 5 mg/kg i.v., Day 11): 62.41 mm^3
Tumor volume ([6]; 5 mg/kg i.v., Day 14): 42.40 mm^3
Tumor volume ([6]; 5 mg/kg i.v., Day 18): 34.32 mm^3
Tumor volume ([6]; 5 mg/kg i.v., Day 21): 30.63 mm^3
Tumor volume ([6]; 5 mg/kg i.v., Day 25): 20.52 mm^3
Tumor volume ([6]; 5 mg/kg i.v., Day 28): 19.00 mm^3
toxic side effects (body weight change) ([6]; 1.25, 2.5, 5 mg/kg i.v. QWx3): without toxic side effects
